US20200223889A1, “Bicyclic Compounds Capable of Binding to Melanocortin 4 Receptor” (Novo Nordisk A/S, priority 2017, published 2020)
Like-named read-outs stand apart in the source and are kept apart here. Positions of bridges follow the written chain, without caps; N, C: chain ends. Non-standard residues stand in square brackets, D forms with d. Residues, ends and D or L forms follow the SMILES beside them. Lys(CH2CO2H)2 = N[C@@H](CCCCN(CC(=O)O)CC(=O)O)C(=O)O; Phe(3,4-(OMe)2) = COc1ccc(C[C@H](N)C(=O)O)cc1OC; Hyp = O=C(O)[C@@H]1C[C@@H](O)CN1; Cit = NC(=O)NCCC[C@H](N)C(=O)O; Thz = O=C(O)[C@@H]1CSCN1

Legend:
human MC1R = target: T1, human MC1R (Homo sapiens, UniProt Q01726); test: Functional cAMP assay (CisBio HTRF) in BHK cells expressing human MC1R; assay type: cell-based
T1 construct: expressed in transfected cells
T1 sequence (Q01726 whole entry): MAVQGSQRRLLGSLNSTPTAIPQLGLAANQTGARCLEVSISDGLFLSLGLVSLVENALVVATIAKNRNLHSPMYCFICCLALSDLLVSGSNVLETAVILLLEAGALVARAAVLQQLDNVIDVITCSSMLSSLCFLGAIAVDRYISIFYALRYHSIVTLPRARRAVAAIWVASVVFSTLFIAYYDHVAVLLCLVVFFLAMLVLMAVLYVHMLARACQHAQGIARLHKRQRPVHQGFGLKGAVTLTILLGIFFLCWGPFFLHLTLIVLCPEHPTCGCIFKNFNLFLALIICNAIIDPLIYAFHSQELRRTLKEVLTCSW
Method: In order to assess the potency of the compounds on human MC1R and human MC4R cAMP signalling was measured.
cAMP induction was measured by c-AMPdynamic2 assay, HTRF 62AM4PEC system from CisBio for the human MC1R and human MC4R according to the protocol provided by the vendor. BHK cells expressing the human MC1 or MC4 receptor were generated by stable transfection with expression vectors encoding the cDNA of either MC1R or MC4R.
In details; 25 μl compound—or standard solution were added in the respective wells. Compound was reconstituted in buffer (DMEM w/o phenol red, 10 mM
Hepes, lx Glutamine, 0.1% OV-albumin1, 1 mM IBMX) and serially diluted starting at 2 μM, 10-fold seven times. Dilutions were carried out in the same aforementioned buffer to the desired working concentration ranges (2× higher than the final concentration). 25 μl cell solution was then added and allowed to incubate for 30 min while lightly shaking, at 25° C. […] The provided components for the assay were reconstituted according to the CisBio assay protocol “3.1 supplied reagents and preparation procedure” in MilliQ purification system H2O and diluted 1:20 in lysis buffer. 25 μl cAMP-d2 and 25 μl Cryptate conjugate were added to all wells.
Plates were centrifuged at 1500 rpm for 30 sec and incubated for 1 h, lightly shaking, at 25° C. in a hotel stacker. The plates were read on Mithras LB 940 provided by Berthold Technologies The data were analysed by non-linear regression analysis of binding curves, using the Windows™ program GraphPad™ Prism (GraphPad Software, USA).
The latter is used when no full curve can be obtained in the concentration ranges indicated above.

human MC4R [1] = target: T2, human MC4R (Homo sapiens, UniProt P32245); test: Functional cAMP assay (CisBio HTRF) in BHK cells expressing human MC4R; assay type: cell-based; conditions: for MC1R/MC4R cAMP EC50 ratio: MC1R cAMP EC50 divided by MC4R cAMP EC50
T2 construct: expressed in transfected cells
T2 sequence (P32245 whole entry): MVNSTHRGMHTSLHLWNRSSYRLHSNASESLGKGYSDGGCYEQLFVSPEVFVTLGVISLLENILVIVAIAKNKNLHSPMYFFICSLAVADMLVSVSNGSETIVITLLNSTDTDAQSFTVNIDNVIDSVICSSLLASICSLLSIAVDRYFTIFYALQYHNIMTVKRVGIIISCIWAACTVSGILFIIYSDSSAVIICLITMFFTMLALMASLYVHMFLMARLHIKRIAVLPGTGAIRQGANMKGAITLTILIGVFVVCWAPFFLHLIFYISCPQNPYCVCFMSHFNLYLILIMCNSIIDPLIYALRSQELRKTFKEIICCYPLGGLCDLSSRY
How it was run: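 Compound working solutions, 10-fold dilutions from 2 μM at twice final strength, in buffer containing 1 mM IBMX, were incubated 30 min at 25 °C with BHK cells stably carrying human MC4R or MC1R. Accumulated cAMP was then detected by competitive HTRF after 1 h at 25 °C and fitted by non-linear regression.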

human MC4R [2] = target: T2, human MC4R; test: 125NDP-α-MSH competitive binding to membranes of BHK cells expressing human MC4 receptor (filtration assay); conditions: human MC4R, BHK cell membranes, 125NDP-α-MSH radioligand; read-out: MC4R binding Ki
How it was run: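 Displacement of ^125NDP-α-MSH (apx. […] final) was measured by filtration after 2 h at 25 °C, using diluted membranes of stably transfected BHK cells in pH 7.0 HEPES buffer. Compounds spanned 1 μM to 0.001 nM; binding curves were analysed by non-linear regression.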

[3] = BHK cells expressing human MC1R, '>' = highest dose used with no response, read-out: MC1R cAMP EC50
[4] = BHK cells expressing human MC4R, '>' = highest dose used with no response, read-out: MC4R cAMP EC50

Row | SMILES | EC50 (human MC1R; [3]) | EC50 (human MC4R [1]; [4]) | MC1R/MC4R cAMP EC50 ratio (human MC4R [1]) | Ki (human MC4R [2]) | EC50 (human MC1R) | EC50 (human MC4R [1])
1 | C[C@@H]1NC(=O)[C@@H]2CSCSC[C@H](NC(=O)[C@H](Cc3c[nH]c4ccccc34)NC(=O)[C@H](CCCNC(=N)N)NC(=O)[C@@H](Cc3ccccc3)NC(=O)[C@H](Cc3c[nH]cn3)NC1=O)C(=O)N[C@@H](C)C(=O)N[C@@H](Cc1c[nH]cn1)C(=O)N[C@H](Cc1ccccc1)C(=O)N[C@@H](CCCNC(=N)N)C(=O)N[C@@H](Cc1c[nH]c3ccccc13)C(=O)N2 [Chem. 8, c[c[Cys-Ala-His-D-Phe-Arg-Trp-Cys]- Ala-His-D-Phe-Arg-Trp]] | 1.76 nM | 0.02 nM | 88 | 0.08 nM |  | 
2 | N=C(N)NCCC[C@@H]1NC(=O)[C@@H](Cc2ccccc2)NC(=O)[C@@H]2C[C@@H](O)CN2C(=O)[C@@H]2CSSC[C@H](NC(=O)[C@H](Cc3c[nH]c4ccccc34)NC1=O)C(=O)N1C[C@H](O)C[C@H]1C(=O)N[C@H](Cc1ccccc1)C(=O)N[C@@H](CCCNC(=N)N)C(=O)N[C@@H](Cc1c[nH]c3ccccc13)C(=O)N2 [Chem. 27, c[c[Cys-Hyp-D-Phe-Arg-Trp-Cys]- Hyp-D-Phe-Arg-Trp]] (cyclo(C[Hyp][dF]RWC[Hyp][dF]RW); disulfide 1-6) | 50.9 nM | 0.24 nM | 212 |  |  | 
3 | C[C@@H]1NC(=O)[C@@H]2CSSC[C@H](NC(=O)[C@H](Cc3c[nH]c4ccccc34)NC(=O)[C@H](CCCNC(N)=O)NC(=O)[C@@H](Cc3ccccc3)NC(=O)[C@H](Cc3c[nH]cn3)NC1=O)C(=O)N[C@@H](C)C(=O)N[C@@H](CCC(=O)O)C(=O)N[C@@H](CCC(=O)O)C(=O)N[C@@H](CCC(=O)O)C(=O)N[C@@H](Cc1c[nH]c3ccccc13)C(=O)N2 [Chem. 45, c[c[Cys-Ala-His-D-Phe-Cit-Trp-Cys]- Ala-Glu-Glu-Glu-Trp]] (cyclo(AEEEWCAH[dF][Cit]WC); disulfide 6-12) | > 100 nM |  | >2 |  |  | 
4 | N=C(N)NCCC[C@@H]1NC(=O)[C@@H](Cc2ccccc2)NC(=O)[C@H](Cc2c[nH]cn2)NC(=O)[C@@H]2CSSC[C@H](NC(=O)[C@H](Cc3c[nH]c4ccccc34)NC1=O)C(=O)N[C@@H](Cc1c[nH]cn1)C(=O)N[C@H](Cc1ccccc1)C(=O)N[C@@H](CCCNC(=N)N)C(=O)N[C@@H](Cc1c[nH]c3ccccc13)C(=O)N2 [Chem. 49, c[c[Cys-His-D-Phe-Arg-Trp-Cys]-His- D-Phe-Arg-Trp]] (cyclo(CH[dF]RWCH[dF]RW); disulfide 1-6) |  |  | >4 |  | > 5.5 nM | 
5 | O=C(O)CC[C@@H]1NC(=O)[C@@H]2CSSC[C@H](NC(=O)[C@H](Cc3c[nH]c4ccccc34)NC(=O)[C@H](Cc3c[nH]cn3)NC(=O)[C@@H](Cc3ccccc3)NC(=O)[C@H](Cc3c[nH]cn3)NC1=O)C(=O)N[C@@H](CCC(=O)O)C(=O)N[C@@H](Cc1c[nH]cn1)C(=O)N[C@H](Cc1ccccc1)C(=O)N[C@@H](Cc1c[nH]cn1)C(=O)N[C@@H](Cc1c[nH]c3ccccc13)C(=O)N2 [Chem. 53, c[c[Cys-Glu-His-D-Phe-His-Trp-Cys]- Glu-His-D-Phe-His-Trp]] (cyclo(CEH[dF]HWCEH[dF]HW); disulfide 1-7) | > 10 nM |  | >1 |  |  | 
6 | COc1ccc(C[C@@H]2NC(=O)[C@H](CCCNC(=N)N)NC(=O)[C@@H](Cc3ccccc3)NC(=O)[C@H](Cc3c[nH]cn3)NC(=O)[C@H](C)NC(=O)[C@@H]3CSSC[C@H](NC2=O)C(=O)N[C@@H](C)C(=O)N[C@@H](CCCCN)C(=O)N[C@@H](CCCCN)C(=O)N[C@@H](CCCCN)C(=O)N[C@@H](Cc2c[nH]c4ccccc24)C(=O)N3)cc1OC [Chem. 67, c[c[Cys-Ala-His-D-Phe-Arg-3,4- DiMeo-Phe-Cys]-Ala-Lys-Lys-Lys- Trp]] (cyclo(AH[dF]R[Phe(3,4-(OMe)2)]CAKKKWC); disulfide 6-12) | > 55 nM |  | >18 |  |  | 
7 | O=C1N[C@H]2CSSC[C@H](NC(=O)[C@H](Cc3c[nH]c4ccccc34)NC(=O)[C@H](Cc3c[nH]cn3)NC(=O)[C@@H](Cc3ccccc3)NC(=O)[C@H](Cc3c[nH]cn3)NC(=O)[C@@H]3CSCN3C2=O)C(=O)N2CSC[C@H]2C(=O)N[C@@H](Cc2c[nH]cn2)C(=O)N[C@H](Cc2ccccc2)C(=O)N[C@@H](Cc2c[nH]cn2)C(=O)N[C@H]1Cc1c[nH]c2ccccc12 [Chem. 91, c[c[Cys-THAZ-His-D-Phe-His-Trp- Cys]-THAZ-His-D-Phe-His-Trp]] (cyclo(C[Thz]H[dF]HWC[Thz]H[dF]HW); disulfide 1-7) |  |  | >14 |  | > 10 nM | 
8 | C[C@@H]1NC(=O)[C@H](C)NC(=O)[C@@H]2CSSC[C@H](NC(=O)[C@H](Cc3c[nH]c4ccccc34)NC(=O)[C@H](C)NC(=O)[C@H](CCCCN(CC(=O)O)CC(=O)O)NC1=O)C(=O)N1CSC[C@H]1C(=O)N[C@@H](Cc1c[nH]cn1)C(=O)N[C@H](Cc1ccccc1)C(=O)N[C@@H](Cc1c[nH]cn1)C(=O)N[C@@H](Cc1c[nH]c3ccccc13)C(=O)N2 [Chem. 104, c[c[Cys-THAZ-His-D-Phe-His-Trp- Cys]-Ala-Ala-Lys(CH2COOH)2-Ala- Trp]] (cyclo(AA[Lys(CH2CO2H)2]AWC[Thz]H[dF]HWC); disulfide 6-12) |  |  | 167 |  | > 100 nM | 0.6 nM
9 | C[C@@H]1NC(=O)[C@H](CCC(=O)O)NC(=O)[C@H](CCC(=O)O)NC(=O)[C@H](C)NC(=O)[C@@H]2CSSC[C@H](NC(=O)[C@H](Cc3c[nH]c4ccccc34)NC1=O)C(=O)N1CSC[C@H]1C(=O)N[C@@H](Cc1c[nH]cn1)C(=O)N[C@H](Cc1ccccc1)C(=O)N[C@@H](Cc1c[nH]cn1)C(=O)N[C@@H](Cc1c[nH]c3ccccc13)C(=O)N2 [Chem. 105, c[c[Cys-THAZ-His-D-Phe-His-Trp- Cys]-Ala-Glu-Glu-Ala-Trp]] (cyclo(AEEAWC[Thz]H[dF]HWC); disulfide 6-12) |  |  | >15 |  | > 100 nM | 
10 | C[C@@H]1NC(=O)[C@H](CC(=O)O)NC(=O)[C@H](CC(=O)O)NC(=O)[C@H](C)NC(=O)[C@@H]2CSSC[C@H](NC(=O)[C@H](Cc3c[nH]c4ccccc34)NC1=O)C(=O)N1CSC[C@H]1C(=O)N[C@@H](Cc1c[nH]cn1)C(=O)N[C@H](Cc1ccccc1)C(=O)N[C@@H](Cc1c[nH]cn1)C(=O)N[C@@H](Cc1c[nH]c3ccccc13)C(=O)N2 [Chem. 106, c[c[Cys-THAZ-His-D-Phe-His-Trp- Cys]-Ala-Asp-Asp-Ala-Trp]] (cyclo(ADDAWC[Thz]H[dF]HWC); disulfide 6-12) |  |  | >10 |  | > 100 nM | 10.6 nM
11 | C[C@@H]1NC(=O)[C@H](CCC(=O)O)NC(=O)[C@H](CC(=O)O)NC(=O)[C@H](C)NC(=O)[C@@H]2CSSC[C@H](NC(=O)[C@H](Cc3c[nH]c4ccccc34)NC1=O)C(=O)N1CSC[C@H]1C(=O)N[C@@H](Cc1c[nH]cn1)C(=O)N[C@H](Cc1ccccc1)C(=O)N[C@@H](Cc1c[nH]cn1)C(=O)N[C@@H](Cc1c[nH]c3ccccc13)C(=O)N2 [Chem. 107, c[c[Cys-THAZ-His-D-Phe-His-Trp- Cys]-Ala-Asp-Glu-Ala-Trp]] (cyclo(ADEAWC[Thz]H[dF]HWC); disulfide 6-12) |  |  | >10 |  | > 100 nM | 10.6 nM
12 | C[C@@H]1NC(=O)[C@H](CC(=O)O)NC(=O)[C@H](CCC(=O)O)NC(=O)[C@H](C)NC(=O)[C@@H]2CSSC[C@H](NC(=O)[C@H](Cc3c[nH]c4ccccc34)NC1=O)C(=O)N1CSC[C@H]1C(=O)N[C@@H](Cc1c[nH]cn1)C(=O)N[C@H](Cc1ccccc1)C(=O)N[C@@H](Cc1c[nH]cn1)C(=O)N[C@@H](Cc1c[nH]c3ccccc13)C(=O)N2 [Chem. 108, c[c[Cys-THAZ-His-D-Phe-His-Trp- Cys]-Ala-Glu-Asp-Ala-Trp]] (cyclo(AEDAWC[Thz]H[dF]HWC); disulfide 6-12) |  |  | >40 |  | > 100 nM | 
